Measurements published in patent US20240058349A1, “PI3K INHIBITORS FOR PROTECTION AGAINST GLUCOCORTICOID-INDUCED ATROPHY” (Northwestern University, priority 2020, published 2024).

Columns and labels:
GR [1] = test: Western blot of GR nuclear translocation; format: cell-based, human; conditions: CEM and Granta cells; LY294002 50 uM, AZD8055 1 uM, Dex 1 uM 24 h
Protocol: (§1) Western blot analysis. Western blot analysis was performed (Ref 10; incorporated by reference in its entirety). The following antibodies were used: GR (H-300) (Santa Cruz Biotechnology, Dallas, TX), phospho-GR (Ser211), phospho-4E-BP1 (Thr37/46), phospho-Akt (Ser473), Akt, 4E-BP1, cleaved and full-length PARP, GAPDH, HDAC1 (Cell Signaling, San Jose, CA), REDD1 (Proteintech Group, Rosemont, IL).
To identify the molecular mechanisms underlying GR functional changes induced by PI3K/Akt/mTOR inhibitors, the effect of these compounds on major steps in GR activation was assessed: GR phosphorylation at Ser211 and nuclear translocation that are critical for GR TA (Refs. 27,28; incorporated by reference in their entireties).

CEM cells [2] = test: MTT cell viability / cytotoxicity assay in CEM cells; format: cell-based, human; conditions: for IC50: Homo sapiens, CCRF-CEM, MTT assay, after 24 h treatment
Protocol: (§2) Cell cultures. Acute lymphoblastic leukemia cell line CEM and mantle cell lymphoma cell line Granta were obtained from ATCC and cultured in RPMI-1640 (Thermo Fischer) with 10% FBS (HyClone), sodium piruvate (10 mM), HEPES (10 mM) and antibiotics (referred thereafter as complete medium; Thermo Fischer) (Ref 14; incorporated by reference in its entirety). Peripheral blood samples were collected from healthy volunteers. The ethical Committee of the Blokhin Cancer Research Center approved this study, written informed consents were provided. Mononuclear cell fraction was isolated by 1.077 g/ml Ficoll-Isopaque density-gradient centrifugation and cultured in the complete medium. Cells were pretreated with Rapa (0.1-5 uM), LY294002 (10-100 uM), WM (1-10 uM) and AZD8055 (0.1-2 uM) or vehicle for 6 h, then were treated for Dex (1-10 uM) or vehicle for 24-144 h as indicated.
(§3) Analysis of cell viability and apoptosis induction. Cell viability was assessed using the MTT assay as follows: cells were incubated at 37° C. for 3 h with 20 ul of MTT solution (5 mg/ml). Supernatant was discarded and 150 μL of 100% DMSO was added to each well. Optical density was measured at 495 nm using a microplate reader MultiScan MCC 340 (Labsystems). The IC50 values was calculated using Quest Graph IC50 Calculator free software. Isobolograms were constructed (Ref 15; incorporated by reference in its entirety). IC50 values of PI3K inhibitors or Dex as single agents were plotted as 1 on the x and y axes, respectively. Various concentrations of PI3K inhibitors and for Dex were combined. The IC50 values for each compound in the combination were calculated and plotted as a percentage of each single drug. The disposition of data points below, above or on the line of additivity indicates synergy, antagonism or additivity, correspondingly.
(§4) PI3K/Akt/mTOR inhibitors were developed as anti-cancer drugs. To assess whether and how PI3K/Akt/mTOR inhibitors interacted with Dex anti-lymphoma effects, experiments were conducted to evaluate the efficacy of the combined treatment in vitro using such readouts as cell viability (MTT test) and apoptosis (PARP cleavage and sub-G1-phase cell population determined by FACS).

Granta cells [3] = test: MTT cell viability / cytotoxicity assay in Granta cells; format: cell-based, human; conditions: for IC50: Homo sapiens, MTT assay, after 24 h treatment
Protocol: as §2, §3, §4

Granta cells [4] = test: Apoptosis induction (PI staining sub-G1, PARP cleavage) in Granta cells; format: cell-based, human
Protocol: (§5) Apoptosis induction was evaluated using Western blot analysis of PARP cleavage and propidium iodine (PI) staining (Ref. 14; incorporated by reference in its entirety).
(§6) Cooperative anti-lymphoma effects of Dex and PI3K/Akt/mTOR inhibitors in vitro. PI3K/Akt/mTOR inhibitors were developed as anti-cancer drugs. To assess whether and how PI3K/Akt/mTOR inhibitors interacted with Dex anti-lymphoma effects, experiments were conducted to evaluate the efficacy of the combined treatment in vitro using such readouts as cell viability (MTT test) and apoptosis (PARP cleavage and sub-G1-phase cell population determined by FACS). The cytotoxic effect of Dex and PI3K inhibitors in wide concentration range (LY294002 1-500 uM, WM 0.1-25 uM, AZD8055 0.05-5 uM) was assessed (FIG. 8) and determined IC50 values after 24 h treatment (Table 8).
(§7) The effect of Dex combined with LY294002, AZD8055, WM or reference inhibitor Rapa was examined on apoptosis.

CEM cells [5] = test: Apoptosis induction (PI staining sub-G1, PARP cleavage) in CEM cells; format: cell-based, human
Protocol: as §5, §6, §7

GR [6] = test: GRE.Luciferase reporter assay (GR transactivation) in CEM and Granta cells; format: cell-based, human
Protocol: Luciferase assay. GRE.Luc, NF-κB.Luc and control mCMV.Luc reporter cells were generated (Ref. 13; incorporated by reference in its entirety) using viral stocks obtained from Northwestern University SDRC DNA/RNA delivery Core. Luciferase activity was measured (Ref. 10; incorporated by reference in its entirety).
REDD1 is a GR target gene (Refs. 10,21; incorporated by reference in their entireties). To assess whether REDD1 inhibitors could modify GR function, LY294002, WM and AZD8055 effect on GR TA and TR was evaluated using CEM and Granta cells transduced with GRE.Luc and NF-kB.Luc reporters. […] Luciferase activity in both cell lines (FIG. 2A, C). […] Attenuation of GR TA was further confirmed by Q-PCR analysis of known GR-target genes including GR chaperone FKBP51 (Refs. 12,14; incorporated by reference in their entireties), mediator of Gcs anti-inflammatory effects GILZ (22,23), transcriptional activator KLF9 (24) and inhibitor of cytokine production MKP-1 (25) (FIG. 2B, D and FIG. 7A, B).

REDD1 = REDD1 mRNA/protein expression (Q-PCR, Western blot) in CEM and Granta cells; format: cell-based, human
Protocol: as §2, §1
RNA extraction and Q-PCR. […]

[7] = tested on: Dex-induced osteoporosis and skin atrophy; test: Glucocorticoid-induced osteoporosis (GIOP) and skin atrophy model; format: in vivo, BALB/c female mice
Protocol: Glucocorticoid-induced osteoporosis (GIOP). GIOP was induced as described (18) by i.p. injection of Dex (10 mg/kg) in 12 weeks old BALB/c female mice (“Stolbovaya”, Moscow region, Russia) every 48 h for 5 weeks. 6 h prior to Dex, animals were treated i.p. with LY294002 (20 mg/kg), Rapamycin (5 mg/kg) of vehicle (30% PEG3350, 4% DMSO, 5% Tween-20 in PBS). Body weight was recorded twice a week.
Histological analysis and immunostaining. Xenograft and skin samples were fixed in formaldehyde, embedded in paraffin, sections were stained with hematoxylin and eosin. The bone samples after formaldehyde fixation were decalcinated in decalcination buffer (0.5 M EDTA, 0.7 mM NaOH, pH=7.0) for 14 days, then washed with PBS twice and further processed according to standard histology protocol. Ki67 and Caspase 3 were detected by immunostaining with antibodies to Ki-67 and Caspase-3 (Cell Signaling, San Jose, CA).
(§8) Morphometric analysis. Quantification of the epidermal width, dermal adipose thickness, bone thickness and cellularity of xenograft tissue was performed in sections stained with hematoxylin and eosin. At least 5 individual fields per slide of each individual sample/treatment (at least 50 images/treatment group) were analyzed using Axioplan2 microscope software (Carl Zeiss). The epidermal, dermal adipose, or bone thickness and cell density in treated animals is presented as % to control animals.
To test whether REDD1 inhibitors protect against systemic atrophic effects of Gcs, a model of Gcs-induced osteoporosis in Balb/c female mice was used (18) to assess atrophy in both bone and skin induced by high-dose i.p. Dex injections (10 mg/kg) every 48 h for 5 weeks. LY294002 (20 mg/kg), Rapa (5 mg/kg) or vehicle were injected 6 h prior animal treatment with Dex.

Granta xenografts = test: Granta lymphoma xenograft tumor growth study; format: in vivo, nu/nu mice; conditions: 27th day of treatment, vs control; i.p. every 48 h; LY294002 20 mg/kg, Rapa 5 mg/kg, Dex 1 mg/kg
Protocol: Xenograft tumor growth study. 10 million Granta cells in 200 ul BD Matrigel Matrix were subcutaneously injected into the right flank of 7 weeks old female nu/nu mice (Taconic). Animals were randomized and treated every 48 h with LY294002 (20 mg/kg), Rapamycin (5 mg/kg) of vehicle (30% PEG3350, 4% DMSO, 5% Tween 20 in PBS) followed by Dex (1 mg/kg) of vehicle (5% DMSO in PBS) 6 h later. Body weight was recorded twice a week. Tumor size was measured twice a week by digital calipers, drug interaction mode was calculated based on combination index method (Refs. 16,17; incorporated by reference in their entireties). Combination index (CI) of Dex+Rapa/LY294002 was calculated as ratio (observed fraction value of combination group)/(expected fraction value of combination group). The observed fractions were calculated as ratio (mean value of experiment)/(mean value of control), and the expected fractions values of combination effect between combined groups and single drug groups were calculated as expected fraction=(mean observed fraction of Dex)×(mean observed fraction of Rapa/LY294002). CI<1, CI=1 and CI>1 indicates a synergy, additive effect and antagonism, respectively.
Histological analysis and immunostaining. […] Ki67 and Caspase 3 were detected by immunostaining with antibodies to Ki-67 and Caspase-3 (Cell Signaling, San Jose, CA).
as §8, with “The epidermal, dermal adipose, or bone thickness and cell density in treated animals is presented as % to control animals.” left out
Animals were randomized to different treatment groups after tumor volume reached 50 mm3. […] All treatment regiments were only minimally toxic according to the steady increase in body weight monitored twice weekly (FIG. 11). Tumor volume was measured also twice a week (FIG. 12).

[8] = combination with Dex, IC50 after 24 h treatment
[9] = systemic Dex 10 mg/kg every 48 h, 5 weeks, LY294002 20 mg/kg
[10] = used alone for 6 days, LY294002 50 uM, AZD8055 1 uM, WM 10 uM, Dex 1 uM

Structure (SMILES): COc1ccc(-c2ccc3c(N4CCOC[C@@H]4C)nc(N4CCOC[C@@H]4C)nc3n2)cc1CO [AZD8055]
- GR nuclear import (GR [1]): significantly prevented GR nuclear import
- IC50 (CEM cells [2]): 1.36 µM
- type of interaction with Dex (isobologram analysis), CEM cells (CEM cells [2]; [8]): mostly additive
- IC50 (Granta cells [3]): 2.02 µM
- type of interaction with Dex (isobologram analysis), Granta cells (Granta cells [3]; [8]): mostly additive
- apoptosis (sub-G1-phase cell population), used alone, Granta cells (Granta cells [4]): stimulated apoptosis
- apoptosis (sub-G1-phase cell population), used alone, CEM cells (CEM cells [5]): stimulated apoptosis
- Dex-induced GRE.Luciferase activity (GR [6]; 6 h pre-treatment, Dex 1 uM 24 h): inhibited Dex-induced GRE. Luciferase activity
- basal GR activity (GRE.Luciferase) (GR [6]; applied individually): negatively affected basal GR activity
- effect on REDD1 induction by Dex (REDD1; CEM and Granta cells, 6 h pre-treatment (LY294002 50 uM, WM 10 uM, AZD8055 1 uM), then Dex 24 h): prevented REDD1 induction
- basal REDD1 expression (REDD1; inhibitor without Dex, mRNA in CEM cells, protein more pronounced in Granta cells): blocked basal and glucocorticoid-induced REDD1 expression

Structure (SMILES): C[C@@H]1C[C@H]2[C@@H]3CCC4=CC(=O)C=C[C@]4(C)[C@@]3(F)[C@@H](O)C[C@]2(C)[C@@]1(O)C(=O)CO [Dexamethasone]
- femoral bone thickness ([7]; Dex 10 mg/kg vs control): tendency in decrease
- reduction in dermal adipose thickness [7, 9]: ~70%
- reduction in epidermal thickness [7, 9]: ~50%
- decrease of CEM survival (CEM cells [2]; [10]): 50-55%
- decrease of Granta survival (Granta cells [3]; [10]): 50-55%
- decrease in tumor volume (Granta xenografts): ~40%

Structure (SMILES): O=c1cc(N2CCOCC2)oc2c(-c3ccccc3)cccc12 [LY294002]
- IC50 (CEM cells [2]): 62 µM
- IC50 (Granta cells [3]): 77.6 µM
- decrease in tumor volume (Granta xenografts): ~70%

Structure (SMILES): CO[C@H]1C[C@@H]2CC[C@@H](C)[C@@](O)(O2)C(=O)C(=O)N2CCCC[C@H]2C(=O)O[C@H]([C@H](C)C[C@@H]2CC[C@@H](O)[C@H](OC)C2)CC(=O)[C@H](C)/C=C(\C)[C@@H](O)[C@@H](OC)C(=O)[C@H](C)C[C@H](C)/C=C/C=C/C=C/1C [Rapamycin]
- decrease in tumor volume (Granta xenografts): ~75%

Structure (SMILES): COC[C@H]1OC(=O)c2coc3c2[C@@]1(C)C1=C(C3=O)[C@@H]2CCC(=O)[C@@]2(C)C[C@H]1OC(C)=O [Wortmannin]
- IC50 (CEM cells [2]): 9.14 µM
- IC50 (Granta cells [3]): 11.9 µM
